In US20030044413A1, “Methods of limiting apoptosis of cells” (Regents of the University of Minnesota, priority 1998, published 2003):

Columns and labels:
[1] = test system: primary rat hepatocytes; test: DCA-induced apoptosis, Hoechst staining, primary rat hepatocytes; format: cell-based
Source text: Cell culture and preparation of rat primary hepatocytes. Rat primary hepatocytes were isolated from male Sprague-Dawley rats (200-250 g) by collagenase perfusion as described previously (Mariash et al., J. Biol. Chem, 261, 9583-9586 (1986)). Briefly, rats were aneshtesized with phenobarbitol and the livers were perfused with 0.05% collagenase. Hepatocyte suspensions were obained by passing digested livers through 0.125 mm gauze and washing cells in modified Eagles' medium (MEM, Life Technologies, Inc., Grand Island, N.Y.). […] After isolation, hepatocytes were resuspended in William's E medium (Life Technologies, Inc., Grand Island, N.Y.) supplemented with 26 mM sodium bicarbonate, 23 mM HEPES, 0.01 U/ml insulin, 2 mM L-glutamine, 10 nM dexamethasone, 5.5 mM glucose, 100 U/ml penicillin and 100 U/ml streptomycin and then 1.0×10^6 cells were plated on 35×10 mm […] tissue culture dishes (Becton Dickinson Labware, Lincoln Park, N.J.). The cells were maintained at 37° C. in a humidified atmosphere of 5% CO2 for 3 h. Plates were then washed with medium to remove dead cells, and medium containing 10% heat-inactivated FBS (55° C. for 30 min) was added (Atlanta Biologicals, Inc., Norcross, Ga.). Aliquots of 1.0×10^5 human (HuH-7) hepatoma cells were plated on 35×10 mm tissue culture dishes (Becton Dickinson Labware) and maintained at 37° C. in Dulbecco's MEM (Atlanta Biologicals, Inc.) supplemented with 10% FBS, 100 U/ml penicillin and 100 u/ml streptomycin for 3 h prior to incubation with bile acids.
Incubation of cells with bile acids. […] The medium was gently removed at the indicated time points and scored for nonviable cells by trypan blue dye exclusion. […]
(§1) Morphological evaluation of apoptosis. […] Fluorescence was visualized with a Zeiss standard fluorescence microscope (Carl Zeiss, Inc., Thornwood, N.Y.). […] Stained nuclei were scored by blind analysis and categorized according to the condensation and staining characteristics of chromatin. […] Three fields per dish of approximately 500 nuclei were counted; mean values are expressed as the percent of apoptotic nuclei.

[2] = test system: Cos-7 cells; test: Okadaic acid-induced apoptosis, Cos-7 cells; format: cell-based, monkey
Protocol: HuH-7 cells were treated with 1 nM TGF-β1, 100 μM of either hyodeoxycholic acid, taurocholic acid, tauroursodeoxycholic acid (Sigma Chemical Co.) or glycoursodeoxycholic acid (Steraloids Inc., Wilton, N.H.), or a combination of TGF-β1 plus the individual bile acids for 72 h. HeLa and Cos-7 cells were incubated with 50 nM okadaic acid, 100 μM of either tauroursodeoxycholic acid or glycoursodeoxycholic acid, or a combination of okadaic acid plus the individual bile acids for 24 h. In the combination groups, cells were pretreated with the bile acid alone for 60 min prior to incuation with TGF-β1 or okadaic acid. In all studies, the medium was gently removed at the indicated times and scored for nonviable cells. The attached cells were fixed for morphologic evaluation of apoptosis.
as §1, with “apoptosis. Morphology was performed as described previously (Oberhammer et al., Proc. Natl. Acad. Sci. USA 89, 5408-5412 (1992)).” for “apoptosis.”

[3] = test system: calcein-loaded isolated rat liver mitochondria; test: MPT fluorimetric assay (calcein release)
Protocol: The fluorimetric assay was performed after loading the mitochondria with 10 μM calcein-acetoxymethyl ester (AM) (Molecular Probes Inc., Eugene, Oreg.) for 30 min at 37° C. in chelex-100 treated resuspension buffer before purification by sucrose-percoll gradient centrifugation (Botla et al., J. Pharmacol. Exp. Ther., 272, 930-938 (1995)). The assays were performed using calcein-loaded isolated mitochondria (1 mg protein/ml) in chelex-100-treated respiration buffer at 37° C. For the coincubation assays, the samples were preincubated for 10 min with 500 μM UDCA prior to addition of 200 μM DCA. The fluorescence of calcein was monitored by excitation and emission wavelengths of 490 nm and 515 nm, respectively, using a Perkin-Elmer luminescence spectrometer model LS-5B (Perkin-Elmer Ltd., Buckinghamshire, England).

[4] = test system: HuH-7 cells; test: Okadaic acid-induced apoptosis, HuH-7 cells; format: cell-based, human; conditions: 48 h
Protocol: Incubation of cells with ethanol, TGF-β1, anti-Fas antibody or okadaic acid. Freshly isolated rat hepatocytes were cultured for 3 h as described above and then incubated with William's E medium supplemented with either 0.5% ethanol, 50 μM UDCA, ethanol plus UDCA, or no addition (control) for 2 h and 4 h. HuH-7 cells were incubated with Dulbecco's medium supplemented with either 1 nM TGF-β1 (R & D Systems, Minneapolis, Minn.), 100 μM UDCA, TGF-β1+UDCA, or no addition (control) for 24 h, 48 h, and 72 h. Hep G2 cells were incubated with Dulbecco's medium supplemented with either 0.5 μg/ml of anti-Fas antibody CH-11 (Upstate Biotechnology, Inc., Lake Placid, N.Y.), 100 μM UDCA, CH-11+UDCA, or no addition for 48 h. Both HuH-7 cells and human osteogenic sarcoma Saos-2 cells were cultured in Dulbecco's medium supplemented with either 50 nM okadaic acid (Boehringer Mannheim Biochemicals, Inc, Indianapolis, Ind.), 100 μM UDCA, okadaic acid+UDCA, or no addition for 48 h. […]
as §1

[5] = test system: cytochrome c; test: Cytochrome c release from isolated mitochondria after MPT; set-up: species or system rat; conditions: substance alone on isolated mitochondria
Protocol: Mitochondria isolation. […] In short, animals were sacrificed by exsanguination under ether anesthesia and the livers removed and rinsed in normal saline. Approximately 10 g of minced liver was homogenized at a speed of 800 rpm using 6 complete up and down strokes with a speed controlled mechanical skill drill and a teflon pestle (Tri-R Model K41, Tri-R Instruments, Rockville Center, N.Y.) in an ice-cold solution of 70 mM sucrose, 220 mM mannitol, 1 mM EGTA and 10 mM HEPES, pH 7.4 as a 10% (wt/vol) homogenate. The homogenate was centrifuged at 600×g for 10 min at 4° C. in an SS-34 rotor in a Sorvall RC5C centrifuge (Sorvall Instruments, Newtown, Conn.), and the postnuclear supernatant was centrifuged at 7,000×g for 10 min at 4° C. […] The pellet was resuspended in 2 mL of homogenate buffer, and 1 mL of the resuspended pellet was carefully layered onto a 35-mL self-generating gradient containing 0.25 M sucrose, 1 mM EGTA and percoll (Pharmacia Fine Chemicals, Piscataway, N.J.) (75:25, vol/vol). The mitochondria were purified by centrifugation at 43,000×g for 30 min at 4° C. using a Beckman Ti60 rotor and a Beckman ultracentrifuge model L8-55 (Beckman Instruments, Inc., Schaumburg, Ill.). The clear supernatant solution removed and the lower turbid layer was resuspended in 30 mL of wash buffer containing 0.1 M KCl, 5 mM 3-(N-morpholino)-propane sulfonic acid (MOPS), and 1 mM EGTA, at pH 7.4 and centrifuged at 7,000×g for 10 min at 4° C. The resulting mitochondria pellet was washed in wash buffer two times. A final wash was carried out in chelex-100-treated buffer (Bio-Rad Laboratories, Richmond, Va.; 200-400 mesh, potassium form) without EGTA. The pellet was suspended in 4 mL of chelex-100-treated resuspension buffer containing 125 mM sucrose, 50 mM KCl, 5 mM HEPES, and 2 mM KH2PO4. The usual yield of mitochondria was approximately 25 mg of protein per gram of liver tissue. Mitochondria were used for experiments within 3 h of isolation. Aliquots were removed for examining the purity of the mitochondria preparation.
Measurement of MPT and determination of cytochrome c content in supernatants and mitochondrial pellets after MPT. The MPT was assessed using a spectrophotometric assay measuring high amplitude rapid changes in mitochondria volume. Mitochondria (1 mg protein) were incubated in 1 ml of chelex-100-treated respiration buffer (0.1 M NaCl, 10 mM MOPS, pH 7.4) for 10 min at 25° C. and swelling was monitored at 540 nm in a Beckman DU 64 spectrophotometer. […] Basal values of mitochondria absorbance were measured for 5 min, and the optical density was monitored for an additional 5 min after addition 200 μM DCA or 80 μM phenylarsine oxide (PhAsO; Sigma Chemical Co.). […]

How did the “percentage of apoptotic cells, increase over control” value ([1]; 50 μM DCA, 2 h) turn out when `C[C@H](CCC(=O)O)[C@H]1CC[C@H]2[C@@H]3CC[C@@H]4C[C@H](O)CC[C@]4(C)[C@H]3C[C@H](O)[C@]12C` [DCA, deoxycholic acid] was run?
The value was 8 fold.

With `C[C@H](CCC(=O)O)[C@H]1CC[C@H]2[C@@H]3[C@@H](O)C[C@@H]4C[C@H](O)CC[C@]4(C)[C@H]3CC[C@]12C` [UDCA, ursodeoxycholic acid] as the molecule, how does the percent apoptosis ([2]; okadaic acid + UDCA) read?
The percent apoptosis was 7.3±2.4%.

And the inhibition at 500 µM ([3]; Rattus norvegicus, 200 μM DCA, 500 μM UDCA pretreatment 10 min, read-out: inhibition of DCA-induced calcein release)?
The inhibition at 500 µM was ~50%.

And the “reduction of the apoptotic response” value ([4]; 50 nM okadaic acid + 100 μM UDCA)?
The value was > 80%.

And the cell viability ([1]; 50 μM DCA + 50 μM UDCA, 6 h)?
The cell viability was 88.5±4.9%.

And the “Inhibition % Apoptosis” value ([1]; inducer DCA, hepatocytes, inhibition by UDCA)?
The value was 90.9 ± 4.6%.

`C[C@H](CCC(=O)O)[C@H]1CC[C@H]2[C@@H]3C[C@H](O)[C@@H]4C[C@H](O)CC[C@]4(C)[C@H]3CC[C@]12C` [hyodeoxycholic acid] was tested. Which “effect on DCA-induced calcein release” value ([3]; 500 μM HDCA pretreatment) did it give?
Its value is “did not decrease DCA-induced mitochondrial swelling (FIG. 8B) or prevent calcein release”.

Which results are given for `C=C1[C@@H](O)[C@@H]2O[C@]3(CC[C@H](/C=C/[C@@H](C)[C@@H]4CC(C)=C[C@@]5(O[C@H](C[C@@](C)(O)C(=O)O)CC[C@H]5O)O4)O3)CC[C@H]2O[C@@H]1[C@@H](O)C[C@H](C)[C@H]1O[C@@]2(CCCCO2)CC[C@H]1C` [okadaic acid]?
percent apoptosis ([2]; okadaic acid alone): 21.4±2.9%; translocation of cytochrome c to the supernatants [5]: nor did they cause translocation of cytochrome c; apoptosis induced ([4]; 50 nM okadaic acid): > 30%

“TGF-β1: transforming growth factor β1, nonmembrane damaging inducer of apoptosis” was tested. Which “translocation of cytochrome c to the supernatants” value [5] did it give?
Its value is “nor did they cause translocation of cytochrome c”.
